A short description of data set [1]: anticonvulsant activity, standard maximal electroshock test (MES). It counts as in vivo, mice. Particulars: Mus musculus, po, read-out: ED50, MES. Here is the method: The anticonvulsant activity of certain compounds of the present invention was determined by a standard maximal electroshock test, that described by L. A. Woodbury and V. D. Davenport, Arch. Int. Pharmacodyn.: 1952, 92, 97.
(Protection in the maximal electroshock model is a classic sign of anticonvulsant action.)

Another data set in a line: LD50 in mice, p.o. Particulars: mouse, in vivo, po, dose for which 50% of the animals survive 10 days after administration. Here is the method:
(§1) The LD50's (expressed in mg/kg, p.o.) of 3,5-diamino-6-(2,3-dichlorophenyl)-1,2,4-triazine and 3,5-diamino-6-(2,5-dichlorophenyl)-1,2,4,-triazine were determined in mice and rats. The LD50 described is the dose for which 50% of the animals survive 10 days after administration of the compound.

Another data set can be described thus: LD50 in rats, p.o. The settings on record: rat, in vivo, po, dose for which 50% of the animals survive 10 days after administration. As to the method:
as §1

In the next data set the test system is Plasmodium berghei. Particulars: Plasmodium berghei in mice; Rees et al, J. Med. Chem., 1972 15, 859; cited from earlier work.
The conditions of data set [2]: cited from earlier work; for toxicity: J. Med. Chem., 1972 15, 859.
For data set [3] the following is noted: Rosenberg and Bottiroli, Proc. Soc. Exp. Biol. 1964; cited from earlier work.
Where [4] appears, read: mice, p.o., maximal electroshock, Table 3.
Where [5] appears, read: mice, p.o., maximal electroshock, Table 4 (naphthyl compounds).

The structures appear in SMILES notation. Like-named read-outs stand apart in the source and are kept apart here. Bounds are passed on as bounds.

Regarding `Nc1nnc(-c2cc(Cl)cc(Cl)c2Cl)c(N)n1` [2,3,5-Cl3 NH2, 3,5-diamino-6-(2,3,5-trichlorophenyl)-1,2,4-triazine], in data set [1] (setting [4]), the 50% effective dose (ED50) (usually the dose that gives a 50% effect, or the effect in half of the subjects) is 0.65 mg/kg. On the same count and under the same terms, the same measure for `CN(C)C=Nc1nc(N)nnc1-c1cccc(Cl)c1Cl.O=C(O)C(=O)O` [2,3-Cl2 NCHNMe2, 3-amino-6-(2,3-dichlorophenyl)-5-dimethylaminomethyleneamino-1,2,4-triazine oxalate]: 5 mg/kg. Turning to `Nc1nnc(-c2cccc(Cl)c2Cl)c(N)n1` [2,3-Cl2 NH2, 3,5-diamino-6-(2,3-dichlorophenyl)-1,2,4-triazine], the ED50 in data set [1] is 2.4 mg/kg. For the same compound, the median lethal dose (LD50) (in general, the dose expected to kill half of the subjects tested) at 240 h was 250 mg/kg in “LD50 in mice, p.o.” and more than 640 mg/kg in the data set “LD50 in rats, p.o.”. `CC(=O)Nc1nc(N)nnc1-c1cccc(Cl)c1Cl` [2,3-Cl2 NHCOCH3, 5-acetamido-3-amino-6-(2,3-dichlorophenyl)-1,2,4-triazine]: the ED50 in data set [1] (setting [4]) was 5 mg/kg. As to `Nc1nnc(-c2ccc(Cl)cc2Cl)c(N)n1` [2,4-dichlorophenyl], the antimalarial activity result with Plasmodium berghei is given as “only slight antimalarial activity”. In the case of `Nc1nnc(-c2cc(Cl)ccc2Cl)c(N)n1` [2,5-Cl2 NH2, 3,5-diamino-6-(2,5-dichlorophenyl)-1,2,4-triazine], the ED50 in data set [1] (setting [4]) amounted to 3.3 mg/kg. Also, the median lethal dose (LD50) at 240 h in the data set “LD50 in mice, p.o.” is 708 mg/kg; in the data set “LD50 in rats, p.o.”, more than 640 mg/kg. For `Nc1nnc(-c2ccccc2Br)c(N)n1` [2-Br NH2, 3,5-diamino-6-(2-bromophenyl)-1,2,4-triazine], in data set [1] (setting [4]), the ED50 came out at 8.5 mg/kg.

Turning to `Nc1nnc(-c2cc(Cl)ccc2Br)c(N)n1` [2-Br, 5-Cl NH2, 3,5-diamino-6-(2-5-chlorophenyl)-1,2,4-triazine], in data set [1] (setting [4]), the ED50 is 4.6 mg/kg. On the same count and under the same terms, next, `Nc1nnc(-c2ccccc2C(F)(F)F)c(N)n1` [2-CF3 NH2, 3,5-diamino-6-(2-trifluoromethylphenyl)-1,2,4-triazine]: 20 mg/kg.

On to `Nc1nnc(-c2ccc(Br)cc2Cl)c(N)n1` [2-Cl, 4-Br NH2, 3,5-diamino-6-(4-bromo-2-chlorophenyl)-1,2,4-triazine], for which, in data set [1] (setting [4]), the 50% effective dose (ED50) turned out to be 12.8 mg/kg. On the same count and under the same terms, next, `Nc1nnc(-c2cc(Br)ccc2Cl)c(N)n1` [2-Cl, 5-Br NH2, 3,5-diamino-6-(5-bromo-2-chlorophenyl)-1,2,4-triazine]: 6 mg/kg; `Nc1nnc(-c2c(F)cccc2Cl)c(N)n1` [2-Cl, 6-F NH2, 3,5-diamino-6-(2-chloro-6-fluorophenyl)-1,2,4-triazine]: 12.2 mg/kg; `Nc1nnc(-c2ccccc2I)c(N)n1` [2-I NH2, 3,5-diamino-6-(2-iodophenyl)-1,2,4-triazine]: 11.8 mg/kg. As for `Cc1ccccc1-c1nnc(N)nc1N` [2-Me NH2, 3,5-diamino-6-(2-methylphenyl)-1,2,4-triazine], the ED50 in data set [1] (setting [4]) was determined as 15 mg/kg. For the compound `Cc1ccc2ccccc2c1-c1nnc(N)nc1N` [2-Me, 3,5-diamino-6-(2-methyl-1-naphthyl)-1,2,4-triazine], the ED50 in data set [1] (setting [5]) came out at 16.5 mg/kg. Turning to `Nc1nnc(-c2ccc(Cl)c(Cl)c2)c(N)n1` [3,4-dichlorophenyl], in the data set on Plasmodium berghei, the antimalarial activity entry is “active against the malaria organism Plasmodium berghei in mice”. For the same compound, the toxicity entry in data set [2] (Rees et al) is reported as “toxic at curative doses”. Also, in data set [2] (mouse, in vivo), the therapeutic ratio entry is “low therapeutic ratio”. Turning to `Nc1nnc(-c2cc(Cl)cc3ccccc23)c(N)n1` [3-Cl, 3,5-diamino-6-(3-chloro-1-naphthyl)-1,2,4-triazine], the ED50 in data set [1] (setting [5]) was 6.5 mg/kg. For the compound `Nc1nnc(-c2ccc(Cl)cc2)c(N)n1` [4-chlorophenyl], the antimalarial activity result with Plasmodium berghei is listed as “active against the malaria organism Plasmodium berghei in mice”. In addition, the toxicity result in data set [2] (Rees et al) was “toxic at curative doses”. In data set [2] (malaria, Rees et al), the therapeutic ratio result was “low therapeutic ratio”. Turning to `Nc1nnc(-c2ccc(C(F)(F)F)cc2)c(N)n1` [4-trifluoromethylphenyl], the antimalarial activity entry in the data set with Plasmodium berghei is listed as “still being active against malaria”. In addition, in data set [2] (Rees et al), the toxicity entry was “less toxic than the chlorophenyl compounds”.

Turning to `Nc1nnc(-c2cccc3ccccc23)c(N)n1` [H, 3,5-diamino-6-(1-naphthyl)-1,2,4-triazine], the median effective dose (ED50) in data set [1] (setting [5]) is 2.9 mg/kg. Take `CCN(CCO)CCCC(C)Nc1ccnc2cc(Cl)ccc12` (stereo not drawn) [hydroxychloroquine]: the anticonvulsant activity profile entry in data set [3] is recorded as “favourable activity profile”.
